Measured values taken from patent US4487761A, “Dopamine β-hydroxylase inhibitors” (Merck & Co., Inc., priority 1982, dated 1984).

Target: T1, Dopamine β-hydroxylase (Bos taurus, UniProt P15101)
T1 construct: Dopamine β-hydroxylase was obtained from beef adrenal glands; from tissue; host or cells: beef adrenal glands
T1 sequence (P15101 1-610): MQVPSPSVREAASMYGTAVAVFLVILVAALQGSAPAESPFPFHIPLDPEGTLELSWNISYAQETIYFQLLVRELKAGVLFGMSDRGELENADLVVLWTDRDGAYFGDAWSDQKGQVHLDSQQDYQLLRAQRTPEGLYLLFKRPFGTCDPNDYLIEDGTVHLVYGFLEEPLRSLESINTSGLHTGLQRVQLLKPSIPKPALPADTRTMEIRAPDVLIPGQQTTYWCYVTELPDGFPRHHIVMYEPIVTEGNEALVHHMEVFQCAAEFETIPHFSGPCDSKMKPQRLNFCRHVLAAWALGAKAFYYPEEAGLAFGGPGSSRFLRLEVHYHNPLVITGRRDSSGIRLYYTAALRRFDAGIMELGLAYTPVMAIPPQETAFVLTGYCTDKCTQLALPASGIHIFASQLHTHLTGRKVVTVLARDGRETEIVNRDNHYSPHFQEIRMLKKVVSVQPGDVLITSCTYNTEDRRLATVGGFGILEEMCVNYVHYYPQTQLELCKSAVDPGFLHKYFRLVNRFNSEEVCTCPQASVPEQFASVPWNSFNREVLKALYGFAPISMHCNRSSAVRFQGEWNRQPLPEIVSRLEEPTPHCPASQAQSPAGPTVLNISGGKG
Assay: Dopamine β-Hydroxylase Inhibition Assay
Format: biochemical
Settings: 5 mM tyramine, pH 5.5, 37° C., 10 minutes; enzyme from beef adrenal glands; read-out: I50 (inhibition median) (converted)
Protocol: Dopamine β-hydroxylase was obtained from beef adrenal glands. Minced adrenals were homogenized with 0.025M potassium phosphate buffer (pH--6.4) and centrifuged. The supernatant was adjusted to a final concentration of 1% Triton X-100 (Calbiochem. Inc.) by the addition of one-fourth volume of a 5% Triton X-100 solution and stirred at room temperature for 30 minutes. The Triton X-100 treated supernatant was centrifuged, and fractionated with a 66% aqueous ammonium sulfate solution. The resulting precipitate was homogenized in 0.025M potassium phosphate buffer (pH=6.4) and dialyzed. The dialysate was applied to a DE-52 Cellulose Column (Whatman Co.), pre-equilibrated with 0.005M potassium phosphate buffer (pH=6.4), and preloaded with about 2 cm of acid-washed activated carbon, located directly above the cellulose resin. […]
The assay for the dopamine β-hydroxylase inhibition was carried out in a 1 ml incubation mixture containing 5 mM tyramine (freashly prepared), 1.5 mM ascorbic acid (prepared monthly), 0.4 mM sodium fumarate, 0.045 mM pargyline, catalase ([…] per ml, 500 units) and 0.065M sodium acetate buffer, pH 5.5. […] The optical absorbance of the organic phase was measured at 280 nm. […]

SMILES	IC50
Cc1nc(O)c(O)cc1O [Compound II]	~262 nM
Cc1nc(O)c(O)c(CO)c1O [Compound I]	~158 nM
